In PMC6792352, “Limited Chemical Structural Diversity Found to Modulate Thyroid Hormone Receptor in the Tox21 Chemical Library” (Environmental Health Perspectives, 2019) one finds CC50 data, which are given here for 62 compounds.

Structures can show the parent of a compound that is named as a salt.

A word on the CC50: it is the concentration at which the toxic effect on the cells reaches its halfway point. Low readings indicate harm at low concentration, high ones better tolerance by the cells.

The first data set in a line: in vitro. Conditions: rat, gh3-tre-luc cells, AC50 (uM) modified / 1000.
For the compound `COc1cc(OC)nc(Oc2cccc(Oc3nc(OC)cc(OC)n3)c2C(=O)O)n1` [Bispyribac-sodium], the CC50 at 24 h is more than 90 µM.

The compound `CC(C)C1OCCN1CCOC(=O)NCCCCCCNC(=O)OCCN1CCOC1C(C)C` (stereo not shown) [Bis{2-[2-(propan-2-yl)-1,3-oxazolidin-3-yl]ethyl} hexane-1,6-diylbiscarbamate] gave a CC50 at 24 h of more than 90 µM.

Compound `[O-][S+](c1cc(Cl)cc(Cl)c1O)c1cc(Cl)cc(Cl)c1O` [Bithionoloxide] displayed a CC50 at 24 h of 46 µM. In the case of `S=C=Nc1ccc(N=C=S)cc1` [Bitoscanate], the cytotoxic concentration (CC50) at 24 h is more than 50 µM. The compound `NC(=O)NNC(N)=O` [Biurea] yielded a CC50 at 24 h of more than 90 µM. On to `COC(=O)/C=C/C(C)=C\C=C\C(C)=C\C=C\C=C(C)\C=C\C=C(C)\C=C\C(=O)O` [Bixin], for which the CC50 at 24 h is more than 90 µM. `CCN1CCN(c2cc(-c3ccc(F)cc3)c3c(n2)CCCCCC3)CC1` [Blonanserin] returned a CC50 at 24 h of 20.1 µM. Consider `Cc1cc2c(OCC(CNC(C)(C)C)OC(=O)c3ccccc3)cccc2[nH]1` (stereo not shown) [Bopindolol], for which the 50% cytotoxic concentration (CC50) at 24 h amounted to 42.5 µM.

For `CC(=O)O[C@@H]1C[C@@H]2CC[C@@]1(C)C2(C)C` [Bornyl acetate], the CC50 at 24 h was more than 90 µM. The same measure, in the same setting: with `O=C(Nc1ccccc1-c1ccc(Cl)cc1)c1cccnc1Cl` [Boscalid] the figure was more than 100 µM; with `COc1ccccc1Oc1c(NS(=O)(=O)c2ccc(C(C)(C)C)cc2)nc(-c2ncccn2)nc1OCCO` [Bosentan], more than 50 µM; with `COc1cc(Nc2c(C#N)cnc3cc(OCCCN4CCN(C)CC4)c(OC)cc23)c(Cl)cc1Cl` [Bosutinib methanoate], 8.85 µM.

In turn, `CC[N+](C)(C)Cc1ccccc1Br` [Bretylium tosylate] registered a 50% cytotoxic concentration (CC50) at 24 h of more than 20 µM.

On to `CCN(CC)c1ccc(C(=C2C=CC(=[N+](CC)CC)C=C2)c2ccccc2)cc1` [Brilliant Green], for which the CC50 at 24 h was determined as 0.384 µM. Same read-out and setting: with `Brc1c(NC2=NCCN2)ccc2nccnc12` [Brimonidine] the figure was more than 50 µM; with `CCN[C@H]1CN(CCCOC)S(=O)(=O)c2sc(S(N)(=O)=O)cc21` [Brinzolamide], more than 20 µM. As to `O=c1[nH]c(=O)n([C@H]2C[C@H](O)[C@@H](CO)O2)cc1/C=C/Br` [Brivudine], the CC50 at 24 h is more than 50 µM.

Consider `CCC(C)n1c(=O)[nH]c(C)c(Br)c1=O` (stereo not shown) [Bromacil], for which the CC50 at 24 h was more than 90 µM. With `O=c1oc2ccccc2c(O)c1C(CC(O)c1ccc(-c2ccc(Br)cc2)cc1)c1ccccc1` (stereo not shown) [Bromadiolone], the 50% cytotoxic concentration (CC50) at 24 h is more than 90 µM.

`Nc1c(S(=O)(=O)O)cc(Br)c2c1C(=O)c1ccccc1C2=O` [Bromamine acid sodium salt] had a cytotoxic concentration (CC50) at 24 h of 38.3 µM. On the same count and under the same terms, with `Cc1c(C2(c3cc(Br)c(O)c(Br)c3C)OS(=O)(=O)c3ccccc32)cc(Br)c(O)c1Br` [Bromcresol green] the figure was 45.4 µM; with `Nc1c(CC(=O)O)cccc1C(=O)c1ccc(Br)cc1` [Bromfenac sodium sesquihydrate], more than 50 µM. The compound `CN(Cc1cc(Br)cc(Br)c1N)C1CCCCC1` [Bromhexine hydrochloride] gave a cytotoxic concentration (CC50) at 24 h of 42.9 µM. The same measure, in the same setting: with `O=C1c2ccccc2C(=O)C1c1ccc(Br)cc1` [Bromindione] the figure was more than 50 µM; with `N#CCBr` [Bromoacetonitrile], more than 100 µM.

`Brc1ccccc1` [Bromobenzene] showed a 50% cytotoxic concentration (CC50) at 24 h of more than 90 µM. As to `CC1=C(Br)C(=O)C(Br)=C/C1=C(/c1ccccc1S(=O)(=O)O)c1cc(Br)c(O)c(Br)c1C` [Bromocresol green sodium salt], half-maximal cytotoxicity (CC50 at 24 h) was put at 44.7 µM. `CC(C)C[C@H]1C(=O)N2CCC[C@H]2[C@]2(O)O[C@](NC(=O)[C@@H]3C=C4c5cccc6[nH]c(Br)c(c56)C[C@H]4N(C)C3)(C(C)C)C(=O)N12` [Bromocriptine] showed a cytotoxic concentration (CC50) at 24 h of more than 50 µM.

In turn, `O=[N+]([O-])c1ccc(O/N=C/c2cc(Br)c(O)c(Br)c2)c([N+](=O)[O-])c1` [Bromofenoxim] displayed a CC50 at 24 h of 26 µM. On the same count and under the same terms, with `Fc1c(F)c(F)c(Br)c(F)c1F` [Bromopentafluorobenzene] the figure was more than 90 µM; with `O=S1(=O)OC(c2cc(Br)c(O)c(Br)c2)(c2cc(Br)c(O)c(Br)c2)c2ccccc21` [Bromophenol blue], 63.9 µM; with `CCN(CC)CCNC(=O)c1cc(Br)c(N)cc1OC` [Bromopride], more than 50 µM. For the compound `CCCCCCCC(=O)Oc1c(Br)cc(C#N)cc1Br` [Bromoxynil octanoate], the 50% cytotoxic concentration (CC50) at 24 h was more than 90 µM. `N#Cc1cc(Br)c(O)c(Br)c1` [Bromoxynil] yielded a cytotoxic concentration (CC50) at 24 h of more than 90 µM. `O=C(CCCN1CCC(O)(c2ccc(Br)cc2)CC1)c1ccc(F)cc1` [Bromperidol] displayed a CC50 at 24 h of more than 20 µM. Still for that read-out and setting: with `Clc1ccc(C2(Cn3cncn3)CC(Br)CO2)c(Cl)c1` (stereo not shown) [Bromuconazole] the figure was more than 90 µM. On the same count and under the same terms, with `Cc1ccc2c(Br)cc(Br)c(O)c2n1` [Broquinaldol] the figure was 23 µM. On the same count and under the same terms, with `Cc1nnc2n1-c1sc(Br)cc1C(c1ccccc1Cl)=NC2` [Brotizolam] the figure was 32.6 µM.

In the case of `Oc1c(Br)cc(Br)c2cccnc12` [Broxyquinoline], the 50% cytotoxic concentration (CC50) at 24 h stood at 24.9 µM. For the compound `CC(C)(S)C(=O)N[C@@H](CS)C(=O)O` [Bucillamine], the 50% cytotoxic concentration (CC50) at 24 h was more than 50 µM. Still for that read-out and setting: with `CC(C)(Cc1c[nH]c2ccccc12)NCC(O)COc1ccccc1C#N` (stereo not shown) [Bucindolol] the figure was 20.5 µM.

For `CCCC(=O)Nc1ncnc2c1ncn2[C@@H]1O[C@@H]2COP(=O)(O)O[C@H]2[C@H]1OC(=O)CCC` [Bucladesine], the half-maximal cytotoxic concentration (CC50) at 24 h was more than 50 µM. Regarding `CC(C)(C)c1ccc(CN2CCN(C(c3ccccc3)c3ccc(Cl)cc3)CC2)cc1` (stereo not shown) [Buclizine dihydrochloride], the midpoint of cytotoxicity, the CC50 at 24 h, lay at 32.6 µM. Compound `CCCC1O[C@@H]2C[C@H]3[C@@H]4CCC5=CC(=O)C=C[C@]5(C)[C@H]4[C@@H](O)C[C@]3(C)[C@]2(C(=O)CO)O1` (stereo partly shown) [Budesonide] registered a CC50 at 24 h of more than 90 µM.

Compound `CCCCOc1ccc(CC(=O)NO)cc1` [Bufexamac] registered a CC50 at 24 h of more than 20 µM. Same read-out and setting: with `CCCCNC(=N)NC(=N)N` [Buformin] the figure was more than 50 µM.

The same data set, now with this note: rat, gh3-tre-luc cells, AC50 (uM) modified / 1000, Tox21_110001=Tox21_111349; viability, 1 nM T3 present, 24 h.
In turn, `COc1cc2c(cc1OC)[C@@]13CCN4CC5=CCO[C@H]6CC(=O)N2[C@H]1[C@H]6[C@H]5C[C@H]43` [Brucine] registered a CC50 at 24 h of more than 50 µM.

The data set is the same for the next values; noted with them: rat, gh3-tre-luc cells, AC50 (uM) modified / 1000, Tox21_110001=Tox21_111815; viability, 1 nM T3 present, 24 h.
Turning to `CC(C)C(Br)C(=O)NC(N)=O` (stereo not shown) [Bromisovalum], the half-maximal cytotoxic concentration (CC50) at 24 h was more than 50 µM.

Staying with this data set, now noted: rat, gh3-tre-luc cells, AC50 (uM) modified / 1000, Tox21_110001=Tox21_111947; viability, 1 nM T3 present, 24 h.
`CC(C)(C)OC(=O)c1ncn2c1[C@@H]1CCCN1C(=O)c1c(Br)cccc1-2` [Bretazenil] returned a CC50 at 24 h of more than 50 µM.

Still in this data set, the particulars now being: rat, gh3-tre-luc cells, AC50 (uM) modified / 1000, Tox21_110001=Tox21_112345; viability, 1 nM T3 present, 24 h.
`ClC1=C(Cl)C2(Cl)C(CBr)CC1(Cl)C2(Cl)Cl` (stereo not shown) [Bromociclen] had a CC50 at 24 h of 22.4 µM.

The data set is the same for the next values; noted with them: rat, gh3-tre-luc cells, AC50 (uM) modified / 1000, Tox21_110001=Tox21_112671; viability, 1 nM T3 present, 24 h.
As to `C[C@]12CC[C@H](O)C[C@H]1CC[C@@H]1[C@@H]2CC[C@]2(C)[C@@H](c3ccc(=O)oc3)C[C@H]3O[C@]132` [Bufogenin], the 50% cytotoxic concentration (CC50) at 24 h was more than 50 µM.

Still in this data set, the particulars now being: rat, gh3-tre-luc cells, AC50 (uM) modified / 1000, Tox21_110001=Tox21_112754; viability, 1 nM T3 present, 24 h.
The compound `CCC/C=C/C=C/C(=O)O[C@H]1/C(=C/C(=O)OC)C[C@H]2C[C@H]([C@@H](C)O)OC(=O)C[C@H](O)C[C@@H]3C[C@H](OC(C)=O)C(C)(C)[C@](O)(C[C@@H]4C/C(=C/C(=O)OC)C[C@H](/C=C/C(C)(C)[C@]1(O)O2)O4)O3` [Bryostatin 1] registered a CC50 at 24 h of 9.94 µM.

The data set is the same for the next values; noted with them: rat, gh3-tre-luc cells, AC50 (uM) modified / 1000, Tox21_110001=Tox21_113339; viability, 1 nM T3 present, 24 h.
The compound `CCCCC1C(=O)NC(=O)N(C2CCCCC2)C1=O` (stereo not shown) [Bucolome] returned a CC50 at 24 h of more than 50 µM.

Staying with this data set, now noted: rat, gh3-tre-luc cells, AC50 (uM) modified / 1000, Tox21_110001=Tox21_113494; viability, 1 nM T3 present, 24 h.
Consider `COc1cc(CC(C)N)c(OC)cc1Br` (stereo not shown) [Brolamfetamine hydrobromide], for which the CC50 at 24 h turned out to be 25.6 µM.

Staying with this data set, now noted: rat, gh3-tre-luc cells, AC50 (uM) modified / 1000, Tox21_110001=Tox21_200189; viability, 1 nM T3 present, 24 h.
On to `BrC(Br)Br` [Bromoform], for which the CC50 at 24 h is more than 90 µM.

Still in this data set, the particulars now being: rat, gh3-tre-luc cells, AC50 (uM) modified / 1000, Tox21_110001=Tox21_200355; viability, 1 nM T3 present, 24 h.
In the case of `CCBr` [Bromoethane], the cytotoxic concentration (CC50) at 24 h was more than 90 µM.

Staying with this data set, now noted: rat, gh3-tre-luc cells, AC50 (uM) modified / 1000, Tox21_110001=Tox21_200657; viability, 1 nM T3 present, 24 h.
On to `O=C(O)CBr` [Bromoacetic acid], for which the CC50 at 24 h was more than 90 µM.

The same data set, now with this note: rat, gh3-tre-luc cells, AC50 (uM) modified / 1000, Tox21_110001=Tox21_200790; viability, 1 nM T3 present, 24 h.
Compound `ClCBr` [Bromochloromethane] yielded a 50% cytotoxic concentration (CC50) at 24 h of more than 100 µM.

The same data set, now with this note: rat, gh3-tre-luc cells, AC50 (uM) modified / 1000, Tox21_110001=Tox21_200806; viability, 1 nM T3 present, 24 h.
The compound `ClC(Cl)Br` [Bromodichloromethane] yielded a CC50 at 24 h of more than 90 µM.

The data set is the same for the next values; noted with them: rat, gh3-tre-luc cells, AC50 (uM) modified / 1000, Tox21_110001=Tox21_200894; viability, 1 nM T3 present, 24 h.
Compound `O=C(O)C(Cl)Br` (stereo not shown) [Bromochloroacetic acid] registered a half-maximal cytotoxic concentration (CC50) at 24 h of more than 90 µM.

The same data set, now with this note: rat, gh3-tre-luc cells, AC50 (uM) modified / 1000, Tox21_110001=Tox21_200923; viability, 1 nM T3 present, 24 h.
With `O=C(O)C(Cl)(Cl)Br` [Bromodichloroacetic acid], the cytotoxic concentration (CC50) at 24 h is more than 90 µM.

Still in this data set, the particulars now being: rat, gh3-tre-luc cells, AC50 (uM) modified / 1000, Tox21_110001=Tox21_301856; viability, 1 nM T3 present, 24 h.
Take `ClC1=C(Cl)C2(Cl)C(CBr)CC1(Cl)C2(Cl)Cl` (stereo not shown) [Bromociclen]: half-maximal cytotoxicity (CC50 at 24 h) was put at 36.9 µM.

Staying with this data set, now noted: rat, gh3-tre-luc cells, AC50 (uM) modified / 1000, Tox21_110001=Tox21_301918; viability, 1 nM T3 present, 24 h.
For the compound `COP(=S)(OC)Oc1cc(Cl)c(Br)cc1Cl` [Bromofos], the CC50 at 24 h was more than 90 µM.

The data set is the same for the next values; noted with them: rat, gh3-tre-luc cells, AC50 (uM) modified / 1000, Tox21_110001=Tox21_302174; viability, 1 nM T3 present, 24 h.
`COc1cc2c(cc1OC)[C@@]13CCN4CC5=CCO[C@H]6CC(=O)N2[C@H]1[C@H]6[C@H]5C[C@H]43` [Brucine] displayed a CC50 at 24 h of more than 90 µM.
